Measurements: ChEMBL document CHEMBL1201862, “PubChem BioAssay data set” (2004)
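Grown in 96-well plates, cells were treated for 48 hours with each compound at five concentrations. Insufficient inhibition: endpoint recorded as highest concentration tested. Abbreviation: GI50, concentration required for 50% inhibition of growth.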 Active and inactive are the calls of the source. Rule as the data show it: active = GI50 up to about 1.1 µM and inactive = higher.

Experiments:
Test in all cases: DTP human tumour cell line panel, 48 h
RPMI-8226 = tested on: RPMI-8226
K562 = tested on: K562
HCT-15 = tested on: HCT-15
PC-3 = tested on: PC-3
MDA-MB-231 = tested on: MDA-MB-231
EKVX = tested on: EKVX
SNB-19 = tested on: SNB-19
Malme-3M = tested on: Malme-3M
SW-620 = tested on: SW-620
NCI-H23 = tested on: NCI-H23
OVCAR-4 = tested on: OVCAR-4
HOP-62 = tested on: HOP-62
A549 = tested on: A549
SN12C = tested on: SN12C
HCC 2998 = tested on: HCC 2998
OVCAR-3 = tested on: OVCAR-3
NCI-H522 = tested on: NCI-H522
RXF 393 = tested on: RXF 393
MOLT-4 = tested on: MOLT-4
NCI-H226 = tested on: NCI-H226

Measured: GI50

CC(=O)NC1C(OCc2ccccc2)OC(CO)C(O)C1OCC(=O)N[C@@H](C)C(=O)N[C@H](CCC(=O)NCCNCCNc1c2ccccc2nc2cccc([N+](=O)[O-])c12)C(N)=O (some centres not stated)
22.6 µM: HCT-15
inactive: RPMI-8226 24.4 µM | K562 32.3 µM | PC-3 22.1 µM | MDA-MB-231 34.8 µM | EKVX 31.6 µM | SNB-19 38.9 µM | Malme-3M 19.2 µM | SW-620 39.1 µM | NCI-H23 16.4 µM | OVCAR-4 17.3 µM | HOP-62 41.4 µM | A549 35.4 µM | SN12C 59.7 µM | HCC 2998 6.52 µM | OVCAR-3 44 µM | NCI-H522 4.92 µM | RXF 393 36.4 µM

COc1ccc(CN2C[C@H]3[C@@H](CC(=O)O[C@H]3C)CC2=O)cc1
inactive: RPMI-8226 > 100 µM | K562 > 100 µM | PC-3 > 100 µM | MDA-MB-231 > 100 µM | EKVX > 100 µM | SNB-19 > 100 µM | Malme-3M > 100 µM | SW-620 > 100 µM | NCI-H23 > 100 µM | OVCAR-4 > 100 µM | HOP-62 > 100 µM | A549 > 100 µM | HCC 2998 > 100 µM | OVCAR-3 > 100 µM | NCI-H522 > 100 µM | RXF 393 > 100 µM | MOLT-4 > 100 µM
> 100 µM: HCT-15

Cc1ccc(S(=O)(=O)Nn2c(-c3ccccc3)c(C#N)c(-c3ccc([N+](=O)[O-])cc3)c(C#N)c2=O)cc1
inactive: RPMI-8226 25.8 µM | PC-3 > 100 µM | MDA-MB-231 > 100 µM | EKVX > 100 µM | SNB-19 40.8 µM | Malme-3M > 100 µM | SW-620 > 100 µM | OVCAR-4 > 100 µM | HOP-62 > 100 µM | A549 > 100 µM | SN12C > 100 µM | NCI-H226 > 100 µM | HCC 2998 > 100 µM | NCI-H522 13.3 µM | RXF 393 > 100 µM | MOLT-4 45.6 µM
> 100 µM: HCT-15

CCn1nc2c3c(ncn3C(C)(C)O2)c1=O
inactive: RPMI-8226 > 100 µM | K562 > 100 µM | PC-3 > 100 µM | MDA-MB-231 > 100 µM | EKVX > 100 µM | SNB-19 > 100 µM | Malme-3M > 100 µM | SW-620 > 100 µM | NCI-H23 > 100 µM | OVCAR-4 > 100 µM | HOP-62 > 100 µM | A549 > 100 µM | SN12C > 100 µM | NCI-H226 > 100 µM | HCC 2998 > 100 µM | NCI-H522 > 100 µM | RXF 393 > 100 µM | MOLT-4 > 100 µM
> 100 µM: HCT-15

CC#Cc1cc2c(cc1O)CC[C@@H]1[C@@H]2CC[C@]2(C)[C@@H](O)CC[C@@H]12
inactive: RPMI-8226 1.61 µM | PC-3 3.92 µM | MDA-MB-231 8.18 µM | EKVX 2.49 µM | SNB-19 2.4 µM | NCI-H23 1.54 µM | OVCAR-4 12.8 µM | HOP-62 1.29 µM | A549 2.01 µM | SN12C 6.15 µM | NCI-H226 2.8 µM | HCC 2998 5.89 µM | RXF 393 2.45 µM
active: K562 0.344 µM | Malme-3M 0.582 µM | SW-620 0.655 µM | NCI-H522 0.289 µM | MOLT-4 0.621 µM
0.34 µM: HCT-15

NNC(=O)CC(=O)Nc1ccc(S(=O)(=O)c2ccc(NC(=O)CC(=O)NN)cc2)cc1
inactive: RPMI-8226 > 100 µM | K562 > 100 µM | PC-3 > 100 µM | MDA-MB-231 > 100 µM | EKVX > 100 µM | SNB-19 > 100 µM | SW-620 > 100 µM | NCI-H23 > 100 µM | OVCAR-4 > 100 µM | HOP-62 > 100 µM | A549 > 100 µM | SN12C > 100 µM | NCI-H226 > 100 µM | HCC 2998 > 100 µM | OVCAR-3 > 100 µM | NCI-H522 > 100 µM | RXF 393 > 100 µM | MOLT-4 > 100 µM
> 100 µM: HCT-15

CCN(CC)CCC(=O)O[C@H]1CC[C@H](CC(C)[C@H]2CC(=O)C(C)C=C(C)[C@H](OC(=O)CCN(CC)CC)C(OC)C(=O)[C@@H](C)CC(C)/C=C/C=C/C=C(C)C(OC)CC3CC[C@H](C)[C@](O)(O3)C(=O)C(=O)N3CCCCC3C(=O)O2)CC1OC (some centres not stated)
0.137 µM: HCT-15
active: PC-3 < 0.0195 µM | MDA-MB-231 0.228 µM | EKVX 0.025 µM | SNB-19 0.0571 µM | Malme-3M < 0.0108 µM | SW-620 0.266 µM | NCI-H23 0.161 µM | OVCAR-4 < 0.0132 µM | HOP-62 < 0.01 µM | A549 0.251 µM | SN12C 0.0847 µM | NCI-H226 0.0209 µM | HCC 2998 0.267 µM | OVCAR-3 0.202 µM | NCI-H522 0.0276 µM | RXF 393 0.011 µM | MOLT-4 0.0185 µM

CSc1nc(NC(C)C)c2c(n1)Sc1nc3ccccc3n1C2O (configuration not stated)
4.1 µM: HCT-15
inactive: K562 3.15 µM | PC-3 1.83 µM | MDA-MB-231 9.14 µM | EKVX 11.5 µM | Malme-3M 1.98 µM | SW-620 2.27 µM | NCI-H23 4.79 µM | OVCAR-4 4.98 µM | HOP-62 6.37 µM | A549 3.41 µM | SN12C 9.57 µM | HCC 2998 5.55 µM | OVCAR-3 2.51 µM | NCI-H522 2.28 µM | RXF 393 3.86 µM | MOLT-4 2.84 µM
active: RPMI-8226 0.0432 µM

Cc1c(-c2ccccc2)c(C#N)c2nnc(C(N)=O)c(N)n12
> 100 µM: HCT-15
inactive: RPMI-8226 > 100 µM | K562 > 100 µM | PC-3 > 100 µM | MDA-MB-231 > 100 µM | EKVX > 100 µM | SNB-19 > 100 µM | Malme-3M > 100 µM | SW-620 > 100 µM | NCI-H23 > 100 µM | OVCAR-4 > 100 µM | HOP-62 > 100 µM | A549 > 100 µM | SN12C > 100 µM | HCC 2998 > 100 µM | OVCAR-3 > 100 µM | NCI-H522 > 100 µM | RXF 393 > 100 µM | MOLT-4 > 100 µM

C/C=C/COc1cc(NC(=S)c2ccoc2C)ccc1OC
inactive: RPMI-8226 23 µM | PC-3 > 100 µM | MDA-MB-231 29.5 µM | EKVX 49.8 µM | SNB-19 26.7 µM | Malme-3M 89.1 µM | SW-620 > 100 µM | NCI-H23 > 100 µM | OVCAR-4 23 µM | HOP-62 34.7 µM | A549 > 100 µM | SN12C 62.1 µM | NCI-H226 > 100 µM | HCC 2998 > 100 µM | OVCAR-3 50.2 µM | NCI-H522 66.1 µM | RXF 393 > 100 µM | MOLT-4 > 100 µM
> 100 µM: HCT-15

C/C=C1/CC(C)C(C)(O)C(=O)OCC2C(O)CN3CCC(OC1=O)C23 (configuration not stated)
> 100 µM: HCT-15
inactive: RPMI-8226 > 100 µM | K562 > 100 µM | PC-3 > 100 µM | MDA-MB-231 > 100 µM | EKVX > 100 µM | SNB-19 > 100 µM | SW-620 > 100 µM | NCI-H23 > 100 µM | OVCAR-4 > 100 µM | HOP-62 > 100 µM | A549 > 100 µM | SN12C > 100 µM | NCI-H226 > 100 µM | HCC 2998 > 100 µM | NCI-H522 68.9 µM | RXF 393 > 100 µM | MOLT-4 > 100 µM
